Like-named read-outs stand apart in the source and are kept apart here.
Assay: Plasma pharmacokinetics after single oral dose of Δ8-THCV in MCT oil (LC-MS/MS, non-compartmental analysis)
Assay type: in vivo, human
Design: Clast (last quantifiable concentration): unit not given here
Conditions: for Clast (last quantifiable concentration) / tlast (time to last quantifiable concentration) / concentration at 0.5 h / concentration at 1 h / concentration at 2 h / concentration at 4 h / concentration at 6 h / concentration at 8 h / AUC(0-t) / Cmax / MRT / Tmax: plasma; for plasma concentration: Predose; for concentration at 0.5 h / concentration at 1 h / concentration at 2 h / concentration at 4 h / concentration at 6 h / concentration at 8 h / AUC(0-t) / Cmax / MRT / Tmax: human; for concentration at 0.5 h / concentration at 1 h / concentration at 2 h / concentration at 4 h / concentration at 6 h / concentration at 8 h: oral; for AUC(0-t) / Cmax / MRT / Tmax: po; for MRT: read-out: MRT (mean residence time); for Tmax: read-out: tmax
Method: The study was a two-phase, dose-ranging, placebo-controlled trial in 21 healthy participants to assess the safety, tolerability, PK, and PD of an oral formulation of Δ8-THCV. A detailed description of the study was published elsewhere. The study product was a medium-chain triglyceride (MCT) oil oral formulation of Δ8-THCV at a concentration of 50 mg/mL. […] MCT oil was used as placebo.
Twenty-one participants were enrolled in the clinical study and plasma samples from 15 participants were sent to our laboratory for pharmacokinetic evaluation. Of these, 3 participants were enrolled in Phase 1, an unblinded, placebo-controlled, single ascending dose design and 12 were enrolled in Phase 2, a double-blind, randomized, placebo-controlled, within-participant crossover design. At each study session, participants received one of the following oral doses: placebo, 12.5 mg, 25 mg, 50 mg, 100 mg, and 200 mg of the aforementioned Δ8-THCV formulation in MCT. Study visits were separated by a washout period of a minimum of one week and maximum of 28 days. Participants entered the research facility the night before the session and received the study product in the morning after a standardized high-fat, high-calorie breakfast. PK blood samples included in this analysis were collected prior to dosing and 0.5, 1, 2, 4, 6, and 8 h after dose. Immediately following collection into K2EDTA tubes, blood samples were placed on wet ice, centrifuged, and plasma was immediately frozen at −80 °C until shipment to the bioanalytical laboratory (iC42 Clinical Research and Development, University of Colorado, Aurora, CO, USA) on dry ice.
Plasma samples were analyzed using a validated high-performance liquid chromatography–tandem mass spectrometry (LC-MS/MS) assay. The assay included Δ8-THCV and its main metabolites 11-OH-Δ8-THCV and Δ8-THCV-COOH, Δ9-THCV and its main metabolite Δ9-THCV-COOH, and Δ9-THC and Δ8-THC as well as their main metabolites (Figure 3). The complete list of analyzed compounds and a summary of the key performance parameters of the assay are presented in Appendix A and Table A1 and Table A2. […] For the PK analysis, concentrations below the lower limit of quantification were set to 0 ng/mL. PK parameters were calculated using non-compartmental analysis (Phoenix WinNonlin version 8.4., Certara, Princeton, NJ, USA). Statistical analysis was carried out using GraphPad Prism (version 10, Boston, MA, USA).

[1] = 100 mg single oral Δ8-THCV in MCT oil, Mean (±SD)
[2] = 100 mg single oral Δ8-THCV in MCT oil, Median (Range)
[3] = 200 mg single oral Δ8-THCV in MCT oil, Mean (±SD)
[4] = 200 mg single oral Δ8-THCV in MCT oil, Median (Range)
[5] = 12.5 mg, 12.5 mg Δ8-THCV dose, Mean (SD, %CV)
[6] = 12.5 mg, 12.5 mg Δ8-THCV dose, Median (IQ Range)
[7] = 25 mg, 25 mg Δ8-THCV dose, Mean (SD, %CV)
[8] = 25 mg, 25 mg Δ8-THCV dose, Median (IQ Range)
[9] = 50 mg, 50 mg Δ8-THCV dose, Mean (SD, %CV)
[10] = 50 mg, 50 mg Δ8-THCV dose, Median (IQ Range)
[11] = 100 mg, 100 mg Δ8-THCV dose, Mean (SD, %CV)
[12] = 100 mg, 100 mg Δ8-THCV dose, Median (IQ Range)
[13] = 200 mg, 200 mg Δ8-THCV dose, Mean (SD, %CV)
[14] = 200 mg, 200 mg Δ8-THCV dose, Median (IQ Range)
[15] = 100 mg, 100 mg single oral Δ8-THCV in MCT oil, Mean (±SD)
[16] = 100 mg, 100 mg single oral Δ8-THCV in MCT oil, Median (Range)
[17] = 200 mg, 200 mg single oral Δ8-THCV in MCT oil, Mean (±SD)
[18] = 200 mg, 200 mg single oral Δ8-THCV in MCT oil, Median (Range)

## CCCCCc1cc(O)c2c(c1)OC(C)(C)[C@@H]1CC=C(C(=O)O)CC21 (single isomer, unassigned; (+)) [Δ8-THC-COOH, (+)-11-nor-Δ8-THC-9-carboxylic acid]
[1]
  Clast (last quantifiable concentration): 1.3 (±0.2)
  tlast (time to last quantifiable concentration): 5.8 (±1.3)
[2]
  Clast (last quantifiable concentration): 1.3 (1–1.7)
  tlast (time to last quantifiable concentration): 6 (4–8)
[3]
  Clast (last quantifiable concentration): 1.9 (±0.6)
  tlast (time to last quantifiable concentration): 7.5 (±1.2)
[4]
  Clast (last quantifiable concentration): 1.8 (1.1–2.8)
  tlast (time to last quantifiable concentration): 8 (4–8)
12.5 mg Δ8-THCV dose, Mean (SD, %CV)
  plasma concentration: 0 (±0, --) ng/mL
12.5 mg Δ8-THCV dose, Median (IQ Range)
  plasma concentration: 0 (0–0) ng/mL
25 mg Δ8-THCV dose, Mean (SD, %CV)
  plasma concentration: 0 (±0, --) ng/mL
25 mg Δ8-THCV dose, Median (IQ Range)
  plasma concentration: 0 (0–0) ng/mL
50 mg Δ8-THCV dose, Mean (SD, %CV)
  plasma concentration: 0 (±0, --) ng/mL
50 mg Δ8-THCV dose, Median (IQ Range)
  plasma concentration: 0 (0–0) ng/mL
100 mg Δ8-THCV dose, Mean (SD, %CV)
  plasma concentration: 0 (±0, --) ng/mL
100 mg Δ8-THCV dose, Median (IQ Range)
  plasma concentration: 0 (0–0) ng/mL
200 mg Δ8-THCV dose, Mean (SD, %CV)
  plasma concentration: 0 (±0, --) ng/mL
200 mg Δ8-THCV dose, Median (IQ Range)
  plasma concentration: 0 (0–0) ng/mL
[5]
  concentration at 0.5 h: 0 ng/mL
  concentration at 1 h: 0 ng/mL
  concentration at 2 h: 0 ng/mL
  concentration at 4 h: 0 ng/mL
  concentration at 6 h: 0 ng/mL
  concentration at 8 h: 0 ng/mL
[6]
  concentration at 0.5 h: 0 ng/mL
  concentration at 1 h: 0 ng/mL
  concentration at 2 h: 0 ng/mL
  concentration at 4 h: 0 ng/mL
  concentration at 6 h: 0 ng/mL
  concentration at 8 h: 0 ng/mL
[7]
  concentration at 0.5 h: 0 ng/mL
  concentration at 1 h: 0 ng/mL
  concentration at 2 h: 0 ng/mL
  concentration at 4 h: 0 ng/mL
  concentration at 6 h: 0 ng/mL
  concentration at 8 h: 0 ng/mL
[8]
  concentration at 0.5 h: 0 ng/mL
  concentration at 1 h: 0 ng/mL
  concentration at 2 h: 0 ng/mL
  concentration at 4 h: 0 ng/mL
  concentration at 6 h: 0 ng/mL
  concentration at 8 h: 0 ng/mL
[9]
  concentration at 0.5 h: 0 ng/mL
  concentration at 1 h: 0 ng/mL
  concentration at 2 h: 0 ng/mL
  concentration at 4 h: 0 ng/mL
  concentration at 6 h: 0 ng/mL
  concentration at 8 h: 0 ng/mL
[10]
  concentration at 0.5 h: 0 ng/mL
  concentration at 1 h: 0 ng/mL
  concentration at 2 h: 0 ng/mL
  concentration at 4 h: 0 ng/mL
  concentration at 6 h: 0 ng/mL
  concentration at 8 h: 0 ng/mL
[11]
  concentration at 0.5 h: 0 ng/mL
  concentration at 1 h: 0 ng/mL
  concentration at 2 h: 0 ng/mL
  concentration at 4 h: 0.4 ng/mL
  concentration at 6 h: 0.6 ng/mL
  concentration at 8 h: 0.1 ng/mL
[12]
  concentration at 0.5 h: 0 ng/mL
  concentration at 1 h: 0 ng/mL
  concentration at 2 h: 0 ng/mL
  concentration at 4 h: 0 ng/mL
  concentration at 6 h: 0 ng/mL
  concentration at 8 h: 0 ng/mL
[13]
  concentration at 0.5 h: 0 ng/mL
  concentration at 1 h: 0 ng/mL
  concentration at 2 h: 0.4 ng/mL
  concentration at 4 h: 1.3 ng/mL
  concentration at 6 h: 1.8 ng/mL
  concentration at 8 h: 1.6 ng/mL
[14]
  concentration at 0.5 h: 0 ng/mL
  concentration at 1 h: 0 ng/mL
  concentration at 2 h: 0 ng/mL
  concentration at 4 h: 1.7 ng/mL
  concentration at 6 h: 2 ng/mL
  concentration at 8 h: 1.6 ng/mL
[15]
  AUC(0-t): 2.4 ng·h/mL
  Cmax: 1.4 ng/mL
  MRT: 5.2 h
  Tmax: 5 h
[16]
  AUC(0-t): 1.6 ng·h/mL
  Cmax: 1.4 ng/mL
  MRT: 5.3 h
  Tmax: 5 h
[17]
  AUC(0-t): 8.1 ng·h/mL
  Cmax: 2.4 ng/mL
  MRT: 5.7 h
  Tmax: 6.1 h
[18]
  AUC(0-t): 9.6 ng·h/mL
  Cmax: 2.5 ng/mL
  MRT: 5.8 h
  Tmax: 6 h
Of 504 plasma samples from 15 participants after oral Δ8-THCV
  number of positive plasma samples: 49
One subject after oral Δ8-THCV in MCT oil, Figure A1
  concentration in representative plasma sample: 1.4 ng/mL
